Test results from US4013762A, “Growth promotion” (Richardson-Merrell Inc., priority 1976, dated 1977).
Read-outs that look alike come from different tables or passages of the source.

Assays:
[1] = test system: ten day old leghorn chicks; assay: Chick weight gain, subcutaneous treatment for six days; format: in vivo; settings: for Weight Gain (g ± S.E.M.): gain during one week, control 52.7 ± 1.6, * significantly different from controls, p <- 0.05
[2] = target: T1, androgen receptor (Rattus norvegicus, UniProt P15207); assay: Androgen binding: competitive binding with 3H-testosterone labeled cytosol receptor sites, rat prostate cytosol
T1 construct: male rats were castrated and the prostate cytosol was prepared; from tissue; host or cells: prostate cytosol of castrated male rats, prepared 24 to 48 hours after surgery
T1 sequence (P15207 1-902): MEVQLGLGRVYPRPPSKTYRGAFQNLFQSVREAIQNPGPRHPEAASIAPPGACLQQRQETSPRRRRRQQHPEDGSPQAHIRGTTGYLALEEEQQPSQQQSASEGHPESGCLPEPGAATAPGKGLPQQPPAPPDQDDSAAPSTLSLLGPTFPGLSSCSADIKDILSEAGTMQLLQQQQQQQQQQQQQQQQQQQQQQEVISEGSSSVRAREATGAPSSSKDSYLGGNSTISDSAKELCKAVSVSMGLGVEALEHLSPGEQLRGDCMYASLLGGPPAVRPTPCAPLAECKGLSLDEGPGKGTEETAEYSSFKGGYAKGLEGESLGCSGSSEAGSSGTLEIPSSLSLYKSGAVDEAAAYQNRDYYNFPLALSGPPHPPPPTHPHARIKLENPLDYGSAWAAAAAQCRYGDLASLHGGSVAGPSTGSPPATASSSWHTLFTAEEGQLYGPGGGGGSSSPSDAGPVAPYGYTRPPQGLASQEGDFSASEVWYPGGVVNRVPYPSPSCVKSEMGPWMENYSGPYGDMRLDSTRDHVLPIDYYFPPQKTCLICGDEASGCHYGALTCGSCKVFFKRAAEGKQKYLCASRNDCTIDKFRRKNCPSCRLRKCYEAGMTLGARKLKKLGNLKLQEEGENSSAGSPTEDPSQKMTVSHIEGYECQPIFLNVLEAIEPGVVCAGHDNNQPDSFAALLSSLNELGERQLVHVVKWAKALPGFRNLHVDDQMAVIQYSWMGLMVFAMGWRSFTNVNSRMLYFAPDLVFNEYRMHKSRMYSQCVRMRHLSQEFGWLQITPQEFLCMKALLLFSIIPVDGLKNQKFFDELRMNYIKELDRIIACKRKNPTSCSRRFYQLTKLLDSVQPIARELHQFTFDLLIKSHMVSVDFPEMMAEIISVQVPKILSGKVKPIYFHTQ
Text: This binding is the first step necessary for hormonal action.

[3] = test system: poultry and ruminants; assay: Growth promotion in animals; format: in vivo; settings: applicant's findings
[4] = test system: muscle fiber; assay: Masculinizing effect on the muscle fiber; format: in vivo; settings: applicant's findings
[5] = reported in U.S. Pat. Nos. 3,235,573 and 3,449,381; cited from earlier work
[6] = test system: poultry and ruminants; settings: background, known; cited from earlier work
[7] = test system: muscle fiber; settings: background, known; cited from earlier work

In the case of `C[C@]12CC[C@H]3[C@@H](CCC4=CC(=O)CC[C@@]43C=O)[C@@H]1CCC2=O` [3,17-Dioxoandrost-4-en-19-al, 3,17-dioxoandrost-4-en-19-al], the “Weight Gain (g ± S.E.M.)” value ([1]; 1 mg/kg/day subcutaneously for six days) is reported as 58.8 ± 1.4 g, the “Weight Gain (g ± S.E.M.)” value ([1]; 10 mg/kg/day subcutaneously for six days) is reported as 63.0 ± 1.1 g and the “Weight Gain (g ± S.E.M.)” value ([1]; 30 mg/kg/day subcutaneously for six days) is reported as 74.0 ± 2.6 g. The “growth rate as measured by weight gain” value ([1]; 1.0, 10 and 30 mg/kg/day s.c. six days, compared to untreated control chicks) was “significant increase in growth rate”, the “androgen receptor binding” value ([2]; in vitro, androgen target tissue) was “lack of androgen binding affinity” and the “% Binding (androgen binding, relative)” value ([2]; relative to 5α-dihydrotestosterone equated to 100, 4 × 10^-6 to 4 × 10^-10 molar, castrated male rat prostate cytosol) was 0.07%.

In the case of `C[C@]12CC[C@H]3[C@@H](CCC4=CC(=O)CC[C@@]43C=O)[C@@H]1CC[C@@H]2O` [3-oxo-17β-hydroxyandrost-4-en-19-al], the “growth promotion” value [3] is given as “effective in growth promotion in animals”, the “masculinizing effect on the muscle fiber” value [4] is given as “without any masculinizing effect on the muscle fiber” and the “anabolic-androgenic activity” value [5] is given as “anabolic-androgenic activity”.

For `CCC(=O)O[C@H]1CC[C@H]2[C@@H]3CCC4=CC(=O)CC[C@]4(C)[C@H]3CC[C@]12C` [testosterone propionate], the “growth promotion” value [6] is listed as “effective in promoting growth in animals” and the “masculinization of the muscle fiber” value [7] is listed as “masculinization of the muscle fiber”.

In the case of `CSCCC(O)C(=O)O` (stereo not drawn) [α-hydroxy-γ-methylmercaptobutyric acid], the “growth promotion” value [6] is given as “promote growth by improving feed efficiency”.
